Data: US20230365592A1 (Agios Pharmaceuticals, Inc., priority 2022, published 2023)
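Also: after compound treatment, cells received sepiapterin plus isotope-labelled Phenylalanine for 4 hours, then labelled Tyrosine in the medium was quantified, 10-point 2-fold dilution series run in duplicate.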

The molecules below were run against T1, human PAH with the R408W mutation (Homo sapiens, UniProt P00439, R408W) (assay: Cell Based Phenylalanine Flux Assay). Details: A375 cells expressing human R408W PAH; 24 hrs compound incubation; 13C-Tyrosine by LC-MS; average where tested multiple times; read-out: AC50.
T1 construct: expressed in transfected cells
T1 sequence (P00439 1-452 R408W): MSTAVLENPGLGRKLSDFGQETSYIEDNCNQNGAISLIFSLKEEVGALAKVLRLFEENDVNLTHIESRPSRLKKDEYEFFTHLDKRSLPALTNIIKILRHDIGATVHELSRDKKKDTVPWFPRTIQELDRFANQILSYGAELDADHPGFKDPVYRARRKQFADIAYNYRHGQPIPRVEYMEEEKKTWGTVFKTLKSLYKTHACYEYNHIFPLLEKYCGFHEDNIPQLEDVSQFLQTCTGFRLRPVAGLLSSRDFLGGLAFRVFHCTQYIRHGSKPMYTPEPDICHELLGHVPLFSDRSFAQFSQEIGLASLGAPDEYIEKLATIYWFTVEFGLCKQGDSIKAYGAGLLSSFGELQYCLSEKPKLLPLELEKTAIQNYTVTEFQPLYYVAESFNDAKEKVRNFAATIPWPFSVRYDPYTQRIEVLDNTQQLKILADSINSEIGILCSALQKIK
O=C(c1nnc(-c2cnn(C(F)F)c2)o1)N1CCc2[nH]cnc2[C@@H]1c1cc2cccc(C(F)(F)F)n2n1 [Example 1041, (R)-(5-(1-(difluoromethyl)-1H-pyrazol-4-yl)-1,3,4-oxadiazol-2-yl)(4-(7-(trifluoromethyl)pyrazolo[1,5-a]pyridin-2-yl)-6,7-dihydro-1H-imidazo[4,5-c]pyridin-5(4H)-yl)methanone] was tested, and the AC50 was greater than 5000 nM.
Molecule O=C(c1nnc(-c2ccccn2)o1)N1CCc2[nH]cnc2[C@H]1c1cc2cccc(Cl)n2n1 [Example 1042, (S)-(4-(7-chloropyrazolo[1,5-a]pyridin-2-yl)-6,7-dihydro-1H-imidazo[4,5-c]pyridin-5(4H)-yl)(5-(pyridin-2-yl)-1,3,4-oxadiazol-2-yl)methanone] has an AC50 of less than 500 nM.
In the case of Cn1ncnc1C(=O)N1CCc2[nH]cnc2[C@H]1c1cc2c(C(F)(F)F)cccn2n1 [Example 1044, (S)-(1-methyl-1H-1,2,4-triazol-5-yl)(4-(4-(trifluoromethyl)pyrazolo[1,5-a]pyridin-2-yl)-6,7-dihydro-1H-imidazo[4,5-c]pyridin-5(4H)-yl)methanone], the AC50 is reported as less than 500 nM.
With CC(C)(C)c1nnc(C(=O)N2CCc3[nH]cnc3[C@@H]2c2cc3c(Cl)cccn3n2)o1 [Example 1046, (R)-(5-(tert-butyl)-1,3,4-oxadiazol-2-yl)(4-(4-chloropyrazolo[1,5-a]pyridin-2-yl)-6,7-dihydro-1H-imidazo[4,5-c]pyridin-5(4H)-yl)methanone] the AC50 was greater than 5000 nM.
Work on CC(C)(C)c1nnc(C(=O)N2CCc3[nH]cnc3[C@H]2c2cc3c(Cl)cccn3n2)o1 [Example 1047, (S)-(5-(tert-butyl)-1,3,4-oxadiazol-2-yl)(4-(4-chloropyrazolo[1,5-a]pyridin-2-yl)-6,7-dihydro-1H-imidazo[4,5-c]pyridin-5(4H)-yl)methanone] yielded an AC50 of less than 500 nM.
In the case of Cc1ccn2nc([C@@H]3c4nc[nH]c4CCN3C(=O)c3nc(C(F)F)nn3C)cc2c1 [Example 1049, (S)-(3-(difluoromethyl)-1-methyl-1H-1,2,4-triazol-5-yl)(4-(5-methylpyrazolo[1,5-a]pyridin-2-yl)-6,7-dihydro-1H-imidazo[4,5-c]pyridin-5(4H)-yl)methanone], the AC50 is reported as 500 to 1000 nM.
Work on Cn1ncnc1C(=O)N1CCc2[nH]cnc2[C@@H]1c1cc2c(Cl)cccn2n1 [Example 1051, (R)-(4-(4-chloropyrazolo[1,5-a]pyridin-2-yl)-6,7-dihydro-1H-imidazo[4,5-c]pyridin-5(4H)-yl)(1-methyl-1H-1,2,4-triazol-5-yl)methanone] yielded an AC50 greater than 5000 nM.
Cn1nc(C(F)(F)F)nc1C(=O)N1CCc2[nH]cnc2[C@H]1c1cc2c(Cl)cccn2n1 [Example 1052, (S)-(4-(4-chloropyrazolo[1,5-a]pyridin-2-yl)-6,7-dihydro-1H-imidazo[4,5-c]pyridin-5(4H)-yl)(1-methyl-3-(trifluoromethyl)-1H-1,2,4-triazol-5-yl)methanone] gave an AC50 of less than 500 nM.
Cn1nc(C(F)(F)F)nc1C(=O)N1CCc2[nH]cnc2[C@@H]1c1cc2c(Cl)cccn2n1 [Example 1053, (R)-(4-(4-chloropyrazolo[1,5-a]pyridin-2-yl)-6,7-dihydro-1H-imidazo[4,5-c]pyridin-5(4H)-yl)(1-methyl-3-(trifluoromethyl)-1H-1,2,4-triazol-5-yl)methanone] showed an AC50 of 1000 to 5000 nM.
Cn1nc(Cl)nc1C(=O)N1CCc2[nH]cnc2[C@H]1c1cc2c(Cl)cccn2n1 [Example 1054, (S)-(3-chloro-1-methyl-1H-1,2,4-triazol-5-yl)(4-(4-chloropyrazolo[1,5-a]pyridin-2-yl)-6,7-dihydro-1H-imidazo[4,5-c]pyridin-5(4H)-yl)methanone] gave an AC50 of less than 500 nM.
Molecule Cn1nc(Cl)nc1C(=O)N1CCc2[nH]cnc2[C@@H]1c1cc2c(Cl)cccn2n1 [Example 1055, (R)-(3-chloro-1-methyl-1H-1,2,4-triazol-5-yl)(4-(4-chloropyrazolo[1,5-a]pyridin-2-yl)-6,7-dihydro-1H-imidazo[4,5-c]pyridin-5(4H)-yl)methanone] has an AC50 of 1000 to 5000 nM.
Cc1cccn2nc([C@@H]3c4nc[nH]c4CCN3C(=O)c3nc(C(F)(F)F)nn3C)cc12 [Example 1056, (S)-(1-methyl-3-(trifluoromethyl)-1H-1,2,4-triazol-5-yl)(4-(4-methylpyrazolo[1,5-a]pyridin-2-yl)-6,7-dihydro-1H-imidazo[4,5-c]pyridin-5(4H)-yl)methanone] showed an AC50 of less than 500 nM.
For Cc1cccn2nc([C@H]3c4nc[nH]c4CCN3C(=O)c3nc(C(F)(F)F)nn3C)cc12 [Example 1057, (R)-(1-methyl-3-(trifluoromethyl)-1H-1,2,4-triazol-5-yl)(4-(4-methylpyrazolo[1,5-a]pyridin-2-yl)-6,7-dihydro-1H-imidazo[4,5-c]pyridin-5(4H)-yl)methanone], the AC50 was greater than 5000 nM.
Cc1cccn2nc([C@@H]3c4nc[nH]c4CCN3C(=O)c3nc(C4CC4)nn3C)cc12 [Example 1058, (S)-(3-cyclopropyl-1-methyl-1H-1,2,4-triazol-5-yl)(4-(4-methylpyrazolo[1,5-a]pyridin-2-yl)-6,7-dihydro-1H-imidazo[4,5-c)pyridin-5(4H)-yl)methanone] was tested, and the AC50 was 500 to 1000 nM.
With Cn1nc(C(F)F)nc1C(=O)N1CCc2[nH]cnc2[C@H]1c1cc2c(C(F)(F)F)cccn2n1 [Example 1060, (S)-(3-(difluoromethyl)-1-methyl-1H-1,2,4-triazol-5-yl)(4-(4-(trifluoromethyl)pyrazolo[1,5-a]pyridin-2-yl)-6,7-dihydro-1H-imidazo[4,5-c]pyridin-5(4H)-yl)methanone] the AC50 was less than 500 nM.
Molecule O=C(c1ccnn1C(F)F)N1CCc2[nH]cnc2[C@H]1c1cc2cccc(Cl)n2n1 [Example 1064, (S)-(4-(7-chloropyrazolo[1,5-a]pyridin-2-yl)-6,7-dihydro-1H-imidazo[4,5-c]pyridin-5(4H)-yl)(1-(difluoromethyl)-1H-pyrazol-5-yl)methanone] has an AC50 of 500 to 1000 nM.
With Cn1cc(-c2nnc(C(=O)N3CCc4[nH]cnc4[C@H]3c3cc4cccc(Cl)n4n3)o2)cn1 [Example 1066, (S)-(4-(7-chloropyrazolo[1,5-a]pyridin-2-yl)-6,7-dihydro-1H-imidazo[4,5-c]pyridin-5(4H)-yl)(5-(1-methyl-1H-pyrazol-4-yl)-1,3,4-oxadiazol-2-yl)methanone] the AC50 was less than 500 nM.
Molecule O=C(c1ocnc1C(F)F)N1CCc2[nH]cnc2[C@H]1c1cc2ccc(F)cn2n1 [Example 1068, (S)-(4-(difluoromethyl)oxazol-5-yl)(4-(6-fluoropyrazolo[1,5-a]pyridin-2-yl)-6,7-dihydro-1H-imidazo[4,5-c]pyridin-5(4H)-yl)methanone] has an AC50 of less than 500 nM.
O=C(c1ocnc1C(F)F)N1CCc2[nH]cnc2[C@@H]1c1cc2ccc(F)cn2n1 [Example 1069, (R)-(4-(difluoromethyl)oxazol-5-yl)(4-(6-fluoropyrazolo[1,5-a]pyridin-2-yl)-6,7-dihydro-1H-imidazo[4,5-c]pyridin-5(4H)-yl)methanone] gave an AC50 of 1000 to 5000 nM.
With CC(C)(O)c1nc(C(F)F)c(C(=O)N2CCc3[nH]cnc3[C@H]2c2cc3ccc(F)cn3n2)o1 [Example 1070, (S)-(4-(difluoromethyl)-2-(2-hydroxypropan-2-yl)oxazol-5-yl)(4-(6-fluoropyrazolo[1,5-a]pyridin-2-yl)-6,7-dihydro-1H-imidazo[4,5-c]pyridin-5(4H)-yl)methanone] the AC50 was less than 500 nM.
Molecule CC(C)(O)c1nc(C(F)F)c(C(=O)N2CCc3[nH]cnc3[C@@H]2c2cc3ccc(F)cn3n2)o1 [Example 1071, (R)-(4-(difluoromethyl)-2-(2-hydroxypropan-2-yl)oxazol-5-yl)(4-(6-fluoropyrazolo[1,5-a]pyridin-2-yl)-6,7-dihydro-1H-imidazo[4,5-c]pyridin-5(4H)-yl)methanone] has an AC50 greater than 5000 nM.
Cn1nc(C2CC2)nc1C(=O)N1CCc2[nH]cnc2[C@H]1c1cc2c(Cl)cccn2n1 [Example 1072, (S)-(4-(4-chloropyrazolo[1,5-a]pyridin-2-yl)-6,7-dihydro-1H-imidazo[4,5-c]pyridin-5(4H)-yl)(3-cyclopropyl-1-methyl-1H-1,2,4-triazol-5-yl)methanone] gave an AC50 of 500 to 1000 nM.
Work on Cc1cccn2nc([C@@H]3c4nc[nH]c4CCN3C(=O)c3nc(Cl)nn3C)cc12 [Example 1076, (S)-(3-chloro-1-methyl-1H-1,2,4-triazol-5-yl)(4-(4-methylpyrazolo[1,5-a]pyridin-2-yl)-6,7-dihydro-1H-imidazo[4,5-c]pyridin-5(4H)-yl)methanone] yielded an AC50 of less than 500 nM.
Cn1nc(Cl)nc1C(=O)N1CCc2[nH]cnc2[C@H]1c1cc2c(C(F)(F)F)cccn2n1 [Example 1078, (S)-(3-chloro-1-methyl-1H-1,2,4-triazol-5-yl)(4-(4-(trifluoromethyl)pyrazolo[1,5-a]pyridin-2-yl)-6,7-dihydro-1H-imidazo[4,5-c]pyridin-5(4H)-yl)methanone] was tested, and the AC50 was less than 500 nM.
Molecule Cn1nc(C2CC2)nc1C(=O)N1CCc2[nH]cnc2[C@H]1c1cc2c(C(F)(F)F)cccn2n1 [Example 1081, (S)-(3-cyclopropyl-1-methyl-1H-1,2,4-triazol-5-yl)(4-(4-(trifluoromethyl)pyrazolo[1,5-a]pyridin-2-yl)-6,7-dihydro-1H-imidazo[4,5-c]pyridin-5(4H)-yl)methanone] has an AC50 of less than 500 nM.
Cc1nc(C(=O)N2CCc3[nH]cnc3[C@H]2c2cc3c(C(F)(F)F)cccn3n2)n(C)n1 [Example 1082, (S)-(1,3-dimethyl-1H-1,2,4-triazol-5-yl)(4-(4-(trifluoromethyl)pyrazolo[1,5-a]pyridin-2-yl)-6,7-dihydro-1H-imidazo[4,5-c]pyridin-5(4H)-yl)methanone] was tested, and the AC50 was less than 500 nM.
